Measured values as given in patent publication US20250235404A1, “PEG-LIPIDS AND LIPID NANOPARTICLES” (CAPSTAN THERAPEUTICS, INC., priority 2022, published 2025).

Experiments:
[1] = Encapsulation efficiency of mRNA in LNP / tLNP (RiboGreen RNA assay); type: physicochemical; details: LNP whose PEG-lipid is the labelled compound; 50:10:38.5:1.5 mol/mol, mCherry mRNA, N/P 6
Text: (§1) The mRNA was encapsulated in LNP using a self-assembly process in which an aqueous solution of mRNA at pH=3.5 is rapidly mixed with a solution of lipids dissolved in ethanol, then followed by stepwise phosphate and Tris buffer dilution and tangential flow filtration (TFF) purification. LNP composition in this study was: an ionizable cationic lipid of Formula 1a as shown below/distearoylphosphatidylcholine/cholesterol/PEG-lipid (50:10:38.5:1.5 mol/mol) and were encapsulated at an N/P ratio (the ratio of positively-chargeable lipid amine (N=nitrogen) groups to negatively-charged nucleic acid phosphate (P) groups) at 6. LNPs were frozen at −80° C. LNP were made in which the PEG-lipid was DMG-PEG2000, as a benchmark, or one of Compounds VI-7, VI-8, B-46, or B-47. The diameter of the nanoparticles was measured by dynamic light scattering using a Zetasizer Nano ZS (Malvern Instruments Ltd., Malvern, UK) instrument. Size measurement was carried out in pH 7.4 Tris buffer at 25° C. in relevant disposable capillary cells. A non-invasive back scatter system (NIBS) with a scattering angle of 173° was used for size measurements.
mRNA content was determined using a Quant-iT™ RiboGreen RNA assay kit (Invitrogen™). Encapsulation efficiency was calculated by determining the unencapsulated mRNA content by measuring the fluorescence intensity (Fi) upon the addition of RiboGreen reagent to the LNP and comparing this value to the total fluorescence intensity (Ft) of the RNA content that is obtained upon lysis of the LNPs by 1% Triton X-100, where % encapsulation=(Ft−Fi)/Ft×100).

[2] = Physical-chemical properties of the LNP / tLNP: hydrodynamic diameter and PDI by dynamic light scattering; type: physicochemical; details: for PDI* (polydispersity index) / Hydrodynamic diameter (nm): LNP whose PEG-lipid is the labelled compound, mCherry mRNA, N/P 6; for PDI* (polydispersity index): 50:10:38.5:1.5 mol/mol; for Hydrodynamic diameter (nm): ionizable cationic lipid/DSPC/cholesterol/PEG-lipid 50:10:38.5:1.5 mol/mol, pH 7.4 Tris buffer, 25° C.; for formation of LNP encapsulating mRNA: PEG-lipid at 1.5 mol % in LNP with mCherry mRNA
Procedure: The ability to incorporate various of the disclosed PEG-lipids into LNP encapsulating mRNA was assessed using mRNA encoding the fluorescent marker mCherry.
as §1
CleanCap® mCherry 5-methoxyuridine (5moU) mRNA (L-7203) was purchased from TriLink. mRNA was encapsulated in LNP using a self-assembly process in which an aqueous solution of mRNA at pH=3.5 is rapidly mixed with a solution of lipids dissolved in ethanol, then followed by stepwise phosphate and Tris buffer dilution and TFF purification. LNP composition in this study was: an ionizable cationic lipid as shown in Example 42/distearoylphosphatidylcholine/cholesterol/DMG-PEG 2000/functionalized PEG-lipid (50:10:38.5:1.4:0.1 mol/mol) and were encapsulated at an N/P ratio (the ratio of positively-chargeable […] amine (N=nitrogen) groups to negatively-charged nucleic acid phosphate (P) groups) at 6. The hydrodynamic diameter of the nanoparticles was measured by dynamic light scattering using a Zetasizer Nano ZS (Malvern Instruments Ltd., Malvern, UK) instrument.
The particle size (hydrodynamic diameter) and polydispersity index of the targeted lipid nanoparticles were determined using dynamic light scattering (DLS) on a Malvern Zetasizer Nano ZS (Malvern Instruments, Worcestershire, UK). Size measurement was carried out in pH 7.4 Tris buffer at 25° C. in relevant disposable capillary cells. A non-invasive back scatter system (NIBS) with a scattering angle of 173° was used for size measurements.

HEK293F cells = assay: Transfection of HEK293F cells with mCherry mRNA encapsulated in LNP (flow cytometry, Aqua Live/Dead); type: cell-based, human; details: LNP comprising the labelled PEG-lipid; for expression level of mCherry (gMFI) compared with the benchmark LNP (DMG-PEG2000) / transfection at the lower doses: 24 hours; for expression level of mCherry (gMFI) compared with the benchmark LNP (DMG-PEG2000): FIG. 14C; for transfection at the lower doses: lower LNP doses
Procedure: The ability of the LNP formed in the preceding Example to transfect HEK293F cells, a human embryonic kidney cell-derived cell line, with the mCherry mRNA was assessed. Viral Production Cells (Gibco Catalog number: A35347), a derivative of the HEK 293F cell line adapted to a chemically-defined, serum-free and protein-free medium (LV-MAX™ Production Medium; Gibco Catalog number: A3583401) were grown in suspension, sedimented, resuspended at about 1×10^6 cells/mL, and 200 μL distributed to the wells of a 96-well U-bottom plate. Frozen LNP were thawed and diluted to 100 μg mRNA/mL with sterile water for injection. An appropriate volume of LNP was added to provide 0, 0.3, 0.6, or 2 μg RNA per well in duplicate and mixed by re-pipetting. The cells were then incubated for 1 hour at 37° C. in a CO2 incubator, washed three times with phosphate buffered saline, resuspended in 400 μL of medium in a deep-well 96-well plate, and incubated at 37° C. in a CO2 incubator on an orbital shaker at 900 RPM.
Twenty-four hours after addition of the LNP to the cells they were stained with Aqua Live/Dead (Thermo: catalog L34965) to assess cell viability. Transfection rate and expression level in the transfected cells was assessed by flow cytometry based on mCherry fluorescence.

Row | Molecule | Encapsulation Efficiency (%) [1] | PDI* (polydispersity index) [2] | Hydrodynamic diameter (nm) [2] | formation of LNP encapsulating mRNA [2] | expression level of mCherry (gMFI) compared with the benchmark LNP (DMG-PEG2000) (HEK293F cells) | transfection at the lower doses (HEK293F cells; FIG. 14B) | transfection of live cells (transfection rate) (HEK293F cells; highest LNP dose tested, 24 hours after addition, mCherry fluorescence, FIG. 14B)
1 | 1,2-dimyristoyl-glycero-3-methoxypolyethylene glycol-2000 [DMG-PEG2000, reference compound] | 96% | 0.03 | 82 nm | – | – | – | –
2 | CCCCCCCC(CCCCCCC)CCC(=O)OCC(COC(=O)CCC(CCCCCCC)CCCCCCC)CC(=O)OCCOCCOCCOCCOCCOCCOCCOCCOCCOCCOCCOCCOCCOCCOCCOCCOCCOCCOCCOCCOCCOCCOCCOCCOCCOCCOCCOCCOCCOCCOCCOCCOCCOCCOCCOCCOCCOCCOCCOCCOCCOCCOCCOCCOCCOCc1ccc(OC)cc1 [Compound B-47] | 68% | 0.12 | 98 nm | formed LNP | performed comparably | minimal transfection | –
3 | CCCCCCCCCCCCCCCCCC(=O)OCC(COC(=O)CCCCCCCCCCCCCCCCC)CC(=O)OCCOCCOCCOCCOCCOCCOCCOCCOCCOCCOCCOCCOCCOCCOCCOCCOCCOCCOCCOCCOCCOCCOCCOCCOCCOCCOCCOCCOCCOCCOCCOCCOCCOCCOCCOCCOCCOCCOCCOCCOCCOCCOCCOCCOCCOCc1ccc(OC)cc1 [Compound B-46] | 85% | 0.04 | 88 nm | formed LNP | substantially higher expression levels | substantial levels of transfection | ~90%
